This passage reports IC50 results from patent publication US10000507B2, “Furo- and thieno-pyridine carboxamide compounds useful as pim kinase inhibitors” (Incyte Corporation, priority 2013, dated 2018).

Format in all cases: biochemical
One assay addresses Pim-3 (Homo sapiens (Human), UniProt Q86V86). Description: Pim-3 kinase assay. The note with it: 1 mM ATP, biotin-labeled BAD peptide substrate; read-out: Pim3 IC50. As to the method: (§1) Pim-1 and Pim-3 kinase assays-20 μL reactions were run in white 384 well polystyrene plates dotted with 0.8 μL compound/DMSO in the assay buffer (50 mM Tris, pH 7.5, 0.01% Tween-20, 5 mM MgCl2, 0.01% BSA, 5 mM DTT), containing […] Biotin-labeled BAD peptide substrate (AnaSpec 62269), 1 mM ATP, and 2.5 pM (Pim-1, Invitrogen PV3503) or 1.25 pM (Pim-3, Millipore 14-738) enzyme for 1 h at 25° C. Reactions were stopped by addition of 10 μL STOP Buffer (150 mM Tris, pH=7.5, 150 mM NaCl, 75 mM EDTA, 0.01% Tween-20, 0.3% BSA) supplemented with Phospho-Bad (Ser112) Antibody (Cell Signaling 9291) diluted 666-fold, and Streptavidin donor beads (PerkinElmer 6760002) along with Protein-A acceptor beads (PerkinElmer 6760137) at 15 μg/mL each. Supplementation of the STOP buffer with beads and stopping the reactions were done under reduced light. Prior to the stopping reactions STOP buffer with beads was pre-incubated for 1 h in the dark at room temperature. After stopping the reactions, plates were incubated for 1 h in the dark at room temperature before reading on a PHERAstar FS plate reader (BMG Labtech) under reduced light.

A further assay addresses Pim-1 (Homo sapiens (Human), UniProt P11309). Description: Pim-1 kinase assay. To be noted: 1 mM ATP, biotin-labeled BAD peptide substrate; read-out: Pim1 IC50. As to the method: as §1
The target of the next assay is Pim-2 (Homo sapiens (Human), UniProt Q9P1W9). Description: Pim-2 kinase assay. To be noted: 1 mM ATP, fluorescein-labeled CREBtide peptide substrate; read-out: Pim2 IC50. As to the method:
Pim-2 kinase assay-20 μL reactions were run in white 384 well polystyrene plates dotted with 0.8 μL compound/DMSO in the assay buffer (50 mM Tris, pH 7.5, 0.01% Tween-20, 5 mM MgCl2, 0.01% BSA, 5 mM DTT), containing 0.05 μm Fluorescein-labeled CREBtide peptide substrate (Invitrogen PV3508), 1 mM ATP, and 1 nM enzyme (Invitrogen PV3649) for 2 h at 25° C. Reactions were stopped by addition of 10 μL TR-FRET Dilution Buffer (Invitrogen PV3574) with 30 mM EDTA and 1.5 nM LanthaScreen Tb-CREB pSer133 antibody (Invitrogen PV3566). After 30 min. incubation at room temperature, plates were read on a PHERAstar FS plate reader (BMG Labtech).

Pim-1, sequence (P11309 whole entry): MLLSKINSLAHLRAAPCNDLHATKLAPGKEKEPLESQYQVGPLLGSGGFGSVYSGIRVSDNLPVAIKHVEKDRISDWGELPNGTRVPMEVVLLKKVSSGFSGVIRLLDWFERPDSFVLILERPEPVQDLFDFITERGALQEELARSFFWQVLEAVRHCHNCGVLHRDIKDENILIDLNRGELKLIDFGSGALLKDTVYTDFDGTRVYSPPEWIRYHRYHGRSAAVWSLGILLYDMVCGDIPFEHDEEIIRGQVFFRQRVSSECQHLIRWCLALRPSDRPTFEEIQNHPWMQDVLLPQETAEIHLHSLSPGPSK
Pim-2, sequence (Q9P1W9 whole entry): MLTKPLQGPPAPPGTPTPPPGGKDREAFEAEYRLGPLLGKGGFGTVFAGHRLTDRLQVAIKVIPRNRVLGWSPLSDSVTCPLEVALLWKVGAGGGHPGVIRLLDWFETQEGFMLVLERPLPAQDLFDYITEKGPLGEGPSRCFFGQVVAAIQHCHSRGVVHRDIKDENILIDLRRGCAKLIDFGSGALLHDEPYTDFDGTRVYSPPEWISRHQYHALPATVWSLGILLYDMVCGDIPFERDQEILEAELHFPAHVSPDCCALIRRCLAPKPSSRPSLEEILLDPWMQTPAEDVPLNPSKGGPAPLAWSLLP

Turning to `CCc1cnc2c(C(=O)Nc3cnccc3N3CCC[C@H](N)C3)c(N)sc2c1` [Example 22, 2-Amino-N-{4-[(3S)-3-aminopiperidin-1-yl]pyridin-3-yl}-6-ethylthieno[3,2-b]pyridine-3-carboxamide], the IC50 at Pim-3 is not above 10 nM; on Pim-1, not above 10 nM; on Pim-2, 10 to 100 nM.

With `CCc1cnc2c(C(=O)Nc3cnn(C)c3N3CCCC(N)CC3)c(N)sc2c1` (stereo not drawn) [Example 23, 2-Amino-N-[5-(4-aminoazepan-1-yl)-1-methyl-1H-pyrazol-4-yl]-6-ethylthieno[3,2-b]pyridine-3-carboxamide], the IC50 is not above 10 nM on Pim-3, not above 10 nM at Pim-1 and 10 to 100 nM on Pim-2.

Consider `Nc1sc2cc(-c3ccccc3)cnc2c1C(=O)Nc1cnccc1N1CCC[C@H](N)C1` [Example 24, 2-Amino-N-{4-[(3S)-3-aminopiperidin-1-yl]pyridin-3-yl}-6-phenylthieno[3,2-b]pyridine-3-carboxamide], for which the IC50 at Pim-3 is not above 10 nM; on Pim-1, not above 10 nM; on Pim-2, more than 1000 nM.

For `Cn1ncc(NC(=O)c2c(N)sc3cc(-c4ccccc4)cnc23)c1N1CCCC(N)CC1` (stereo not drawn) [Example 25, 2-Amino-N-[5-(4-aminoazepan-1-yl)-1-methyl-1H-pyrazol-4-yl]-6-phenylthieno[3,2-b]pyridine-3-carboxamide], the IC50 on Pim-3 is not above 10 nM; on Pim-1 it was not above 10 nM; on Pim-2, 10 to 100 nM.

For `Nc1sc2cc(-c3c(F)cccc3F)cnc2c1C(=O)Nc1cnccc1N1CCC[C@H](N)C1` [Example 26, 2-Amino-N-{4-[(3S)-3-aminopiperidin-1-yl]pyridin-3-yl}-6-(2,6-difluorophenyl)-thieno[3,2-b]pyridine-3-carboxamide], the IC50 is not above 10 nM on Pim-3, not above 10 nM at Pim-1 and 10 to 100 nM at Pim-2.

For `Cn1ncc(NC(=O)c2c(N)sc3cc(-c4c(F)cccc4F)cnc23)c1N1CCCC(N)CC1` (stereo not drawn) [Example 27, 2-Amino-N-[5-(4-aminoazepan-1-yl)-1-methyl-1H-pyrazol-4-yl]-6-(2,6-difluorophenyl)-thieno[3,2-b]pyridine-3-carboxamide], the IC50 at Pim-3 was not above 10 nM; on Pim-1, not above 10 nM; on Pim-2, 10 to 100 nM.

For `Cc1noc(C)c1-c1cnc2c(C(=O)Nc3cnccc3N3CCC[C@H](N)C3)c(N)sc2c1` [Example 28, 2-Amino-N-{4-[(3S)-3-aminopiperidin-1-yl]pyridin-3-yl}-6-(3,5-dimethylisoxazol-4-yl)-thieno[3,2-b]pyridine-3-carboxamide], the IC50 is more than 40 nM at Pim-3, not above 10 nM at Pim-1 and more than 2000 nM at Pim-2.

`Cc1noc(C)c1-c1cnc2c(C(=O)Nc3cnn(C)c3N3CCCC(N)CC3)c(N)sc2c1` (stereo not drawn) [Example 29, 2-Amino-N-[5-(4-aminoazepan-1-yl)-1-methyl-1H-pyrazol-4-yl]-6-(3,5-dimethylisoxazol-4-yl)-thieno[3,2-b]pyridine-3-carboxamide]: the figures for the IC50 on Pim-3, at Pim-1 and on Pim-2 were not above 10 nM, not above 10 nM and 100 to 1000 nM, respectively.

As for `Cn1ncc(NC(=O)c2c(N)sc3cc(-c4nccs4)cnc23)c1N1CCCC(N)CC1` (stereo not drawn) [Example 30, 2-Amino-N-[5-(4-aminoazepan-1-yl)-1-methyl-1H-pyrazol-4-yl]-6-(1,3-thiazol-2-yl)-thieno[3,2-b]pyridine-3-carboxamide], the IC50 was not above 10 nM on Pim-3, not above 10 nM on Pim-1 and 10 to 100 nM at Pim-2.

Take `CN1CC(c2cnc3c(C(=O)Nc4cnccc4N4CCC[C@H](N)C4)c(N)sc3c2)C1` [Example 31, 2-Amino-N-{4-[(3S)-3-aminopiperidin-1-yl]pyridin-3-yl}-6-(1-methylazetidin-3-yl)thieno[3,2-b]pyridine-3-carboxamide]: the values for the IC50 on Pim-3, at Pim-1 and at Pim-2 were not above 10 nM, not above 10 nM and 100 to 1000 nM, respectively.
